In US11357871B2, “Challenge test for diagnosing subtypes of ASD” (Stalicla S.A., priority 2017, dated 2022):
Read-outs that look alike come from different tables or passages of the source.

Tests used:
[1] = tested on: lymphoblastoid cell lines of ASD phenotype 1 patients; test: Biolog Phenotype Mammalian MicroArray (PM-M) NADH/energy production, phenotype 1 cells; format: cell-based, human; conditions: cells exposed to the substance; AUC (Figure 1) and endpoint absorbance (Table 1)
Experimental: From all subjects, blood samples were collected and lymphoblastoid cell lines generated. Briefly, tubes containing anticoagulant citrate dextrose (ACD) were used to collect blood samples via venipuncture, in order to ensure that the blood cells remained metabolically active. The tubes were kept at room temperature and processed within 24 hours.
Cell lines were obtained by immortalization of lymphocytes from blood samples using Epstein-Barr virus.
Energy production of cells was measured using commercially available Phenotype Mammalian MicroArrays (PM-Ms, Biolog, Hayward, Calif., USA).
The compound in each well was designed to be used by the cells, either as the sole energy source or as the metabolic effector influencing the utilization of an energy source (α-D-glucose) added in the cell suspension. […] Before plating, cell viability and number were assessed utilizing a BioRad cell counter and a trypan blue dye. The concentration of live cells required for plating was 4×10^5 cells/mL, corresponding to 20,000 cells per well in a volume of 50 μL. […] Cells were incubated for 48 h at 37° C. in 5% CO2, using the modified Biolog IF-M1 medium.
The Biolog IF-M1 medium was modified for plates PM-M1 to M4 by adding the following to 100 mL of Biolog IF-M1: 1.1 mL of 100× penicillin/streptomycin solution, 0.16 mL of 200 mM glutamine (final concentration 0.3 mM), and 5.3 mL of Fetal Bovine Serum (FBS, final concentration 5%). For plates PM-M5 to M8, 5.5 mM α-D-glucose will be added in place of FBS.
During the 48-hour incubation, the only energy source the cells had was the chemical in the well. After this first incubation, Biolog Redox Dye Mix MB was added (10 μL/well) and the plates were incubated under the same conditions for an additional 24 hours. As the cells metabolized the energy source, tetrazolium dye in the media was reduced, producing a purple color according to the amount of NADH generated.
For the last 24 hours of the experiment, the plates were incubated in the Omnilog system, which collects optical density readings every 15 minutes, generating 96 data-points for each well. The system also elaborated the kinetic curve for the metabolic reaction in each well and extrapolated parameters such as slope, highest point, endpoint, area under the curve (AUC), and lag.
At the end of the 24-hour incubation, the plates were analyzed utilizing a microplate reader with readings at 590 and 750 nm. The first value (A590) indicated the highest absorbance peak of the redox dye and the second value (A750) gave a measure of the background noise. The relative absorbance (A590-750) was calculated per well.

ASD phenotype 2 patients = conditions: wording of CGI-I rating
Experimental: (§1) The effects of sulforaphane containing Broccoli sprout extract was observed and quantified in 7 individuals suffering from ASD and previously classified as either phenotype 1 or phenotype 2 patients.
We describe a procedure consisting of an evaluation of patients with ASD prior and after administration of broccoli sprout extract. The extract was prepared from selected broccoli seeds known to have high yield of sulforaphane which were surface-disinfected and grown (sprouted) for 3 days in a commercial sprouting facility under controlled light and moisture conditions. A boiling water extract was prepared, filtered, cooled, and treated with the enzyme myrosinase (from daikon sprouts) to convert precursor glucosinolates to isothiocyanates. Behavioral evaluation of patients was performed prior, during and after administration of sulforaphane-containing broccoli sprout extract. Baseline evaluation of patients was performed using standard clinical endpoints (ADI-R subscales ADI-SI, ADI-C and ADI-RI).
Challenge regimen consisted of the administration of a Broccoli Sprout Extract dose corresponding to a total daily dosage of 4 μmol/kg of sulforaphane, administered in 3 doses over the course of the day. […]

ASD phenotype 1 patients = test: Nrf2-activator challenge test, ASD phenotype 1 patients (ADI-R, CGI-S, CGI-I); format: in vivo, human; conditions: selected patient cohort
Experimental: as §1
The extract was prepared from selected broccoli seeds known to have high yield of sulforaphane which were surface-disinfected and grown (sprouted) for 3 days in a commercial sprouting facility under controlled light and moisture conditions.

Row | Compound | NADH production of ASD phenotype 1 cells compared to TDs and non-phenotype 1 cells [1] | also measured
1 | PDGF-AB: platelet-derived growth factor AB | no significant differences | –
2 | C[S@@+]([O-])CCCCN=C=S [sulforaphane, 1-isothiocyanato-4R-(methylsulfinyl)butane] | – | Clinical significance (ASD phenotype 2 patients; Example 4 Patient 1 (phenotype 2)): Very much improved; Clinical significance (ASD phenotype 2 patients; Example 4 Patient 2 (phenotype 2)): Very much improved; reduction of disease severity as measured through the ADI-R, SRS and GGI-S/CGI-I (ASD phenotype 1 patients): not effective in reducing disease severity
3 | IL-1beta: Th1 cytokine | significantly lower levels of NADH | –
4 | IL-6: Th1 cytokine | significantly lower levels of NADH | –
5 | IGF-I: insulin-like growth factor 1 | no significant differences | –
6 | FGF-1(aFGF): growth factor that selectively targets the PI3K-Akt-mTOR pathway | significantly reduced production of NADH | –
7 | hGH(Somatotropin): growth factor that selectively targets the PI3K-Akt-mTOR pathway | significantly reduced production of NADH | –
